Reference: ChEMBL document CHEMBL1151374, “Plant anticancer agents. XIX Constituents of Aquilaria malaccensis” (1981)
≈ marks a conversion by molar mass, not a printed value. Calls of active or inactive are those of the source. No cut-off for these calls is given here.

Legend:
P388 [1] = experiment: Cytotoxicity against mouse P388 cells in in vitro assay; format: functional; settings: read-out: ED50 (the source's name)
P388 [2] = experiment: Cytotoxicity against mouse P388 cells in in vivo assay; format: functional, organism-based

**Q.** What does the source list for `CCCCCCCCCCCCCCCCCCCCCC(=O)OCC(COC(=O)CCCCCCCCCCCCCCCCCCCCC)OC(=O)/C=C/c1ccc(O)c(OC)c1`?
**A.** EC50 (P388 [1]): 0.8 µg/mL (≈ 0.876 µM); Activity (P388 [2]): inactive

**Q.** How did the EC50 (P388 [1]) turn out when `CCC/C=C/C=C/C=C/C(=O)O[C@@H]1[C@@H](C)[C@@]2(O)[C@@H](C=C(CO)C[C@]3(O)C(=O)C(C)=C[C@@H]23)[C@@H]2C(C)(C)[C@]12OC(C)=O` was run?
**A.** The EC50 was 0.0022 µg/mL (≈ 0.00397 µM).
